Assay results: ChEMBL document CHEMBL2007661, “Compounds: GSK PKIS; Assays: UNC Frye lab” (2012)
Several values for one entry are separate records, joined by “and”; a condition that tells them apart may be missing. Equal entries are not always repeated.

What was measured:
[1] = target: T1, Tyrosine-protein kinase Mer (Homo sapiens) (UniProt Q12866); conditions: at 10 µM
T1 sequence (whole entry): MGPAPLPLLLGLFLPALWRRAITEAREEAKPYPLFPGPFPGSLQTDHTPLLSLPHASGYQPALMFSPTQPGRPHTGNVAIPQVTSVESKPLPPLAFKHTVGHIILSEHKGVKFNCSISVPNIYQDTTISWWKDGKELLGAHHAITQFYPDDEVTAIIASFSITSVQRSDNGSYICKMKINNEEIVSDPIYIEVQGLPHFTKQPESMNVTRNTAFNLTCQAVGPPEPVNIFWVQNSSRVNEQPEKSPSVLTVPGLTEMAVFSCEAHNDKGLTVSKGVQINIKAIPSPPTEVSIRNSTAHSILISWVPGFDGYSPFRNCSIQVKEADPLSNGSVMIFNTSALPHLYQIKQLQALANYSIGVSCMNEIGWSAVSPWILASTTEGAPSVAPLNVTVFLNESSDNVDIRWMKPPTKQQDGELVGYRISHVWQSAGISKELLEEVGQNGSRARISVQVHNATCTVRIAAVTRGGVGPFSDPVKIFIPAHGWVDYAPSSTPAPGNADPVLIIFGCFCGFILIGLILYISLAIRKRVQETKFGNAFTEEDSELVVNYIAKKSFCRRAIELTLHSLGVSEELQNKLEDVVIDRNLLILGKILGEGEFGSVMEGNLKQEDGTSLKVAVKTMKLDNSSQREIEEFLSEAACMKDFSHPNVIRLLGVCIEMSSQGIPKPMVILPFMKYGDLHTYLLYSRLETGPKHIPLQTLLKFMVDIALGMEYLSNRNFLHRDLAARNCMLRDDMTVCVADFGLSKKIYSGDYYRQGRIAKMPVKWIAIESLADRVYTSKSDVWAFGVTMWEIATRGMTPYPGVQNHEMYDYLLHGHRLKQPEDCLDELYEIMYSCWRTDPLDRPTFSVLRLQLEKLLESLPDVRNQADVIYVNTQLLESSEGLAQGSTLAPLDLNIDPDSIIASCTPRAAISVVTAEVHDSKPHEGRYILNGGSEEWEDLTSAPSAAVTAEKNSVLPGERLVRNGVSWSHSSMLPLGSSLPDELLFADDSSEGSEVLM

[2] = target: T2, Serine/threonine-protein kinase TBK1 (Homo sapiens) (UniProt Q9UHD2); conditions: at 1 µM
T2 sequence (whole entry): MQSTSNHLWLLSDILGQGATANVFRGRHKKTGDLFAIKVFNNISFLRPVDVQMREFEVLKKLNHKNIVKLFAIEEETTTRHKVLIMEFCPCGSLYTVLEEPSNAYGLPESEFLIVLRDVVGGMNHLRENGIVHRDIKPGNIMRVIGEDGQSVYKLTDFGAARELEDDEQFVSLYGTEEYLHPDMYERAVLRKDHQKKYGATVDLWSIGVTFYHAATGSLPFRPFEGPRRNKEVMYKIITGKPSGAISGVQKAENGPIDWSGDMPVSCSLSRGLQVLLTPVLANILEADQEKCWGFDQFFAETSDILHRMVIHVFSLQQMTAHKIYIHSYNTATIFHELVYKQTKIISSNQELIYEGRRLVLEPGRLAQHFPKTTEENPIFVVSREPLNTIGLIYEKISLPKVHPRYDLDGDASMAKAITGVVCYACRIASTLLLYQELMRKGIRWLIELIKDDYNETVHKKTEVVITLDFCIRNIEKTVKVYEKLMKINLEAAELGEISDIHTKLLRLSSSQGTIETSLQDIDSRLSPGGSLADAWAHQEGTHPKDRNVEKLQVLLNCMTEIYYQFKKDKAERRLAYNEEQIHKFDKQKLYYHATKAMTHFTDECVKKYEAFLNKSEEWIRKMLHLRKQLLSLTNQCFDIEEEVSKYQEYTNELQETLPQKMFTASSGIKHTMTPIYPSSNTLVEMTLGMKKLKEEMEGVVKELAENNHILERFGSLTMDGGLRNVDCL

[3] = target: T3, Inhibitor of nuclear factor kappa-B kinase subunit epsilon (Homo sapiens) (UniProt Q14164); conditions: at 1 µM
T3 sequence (whole entry): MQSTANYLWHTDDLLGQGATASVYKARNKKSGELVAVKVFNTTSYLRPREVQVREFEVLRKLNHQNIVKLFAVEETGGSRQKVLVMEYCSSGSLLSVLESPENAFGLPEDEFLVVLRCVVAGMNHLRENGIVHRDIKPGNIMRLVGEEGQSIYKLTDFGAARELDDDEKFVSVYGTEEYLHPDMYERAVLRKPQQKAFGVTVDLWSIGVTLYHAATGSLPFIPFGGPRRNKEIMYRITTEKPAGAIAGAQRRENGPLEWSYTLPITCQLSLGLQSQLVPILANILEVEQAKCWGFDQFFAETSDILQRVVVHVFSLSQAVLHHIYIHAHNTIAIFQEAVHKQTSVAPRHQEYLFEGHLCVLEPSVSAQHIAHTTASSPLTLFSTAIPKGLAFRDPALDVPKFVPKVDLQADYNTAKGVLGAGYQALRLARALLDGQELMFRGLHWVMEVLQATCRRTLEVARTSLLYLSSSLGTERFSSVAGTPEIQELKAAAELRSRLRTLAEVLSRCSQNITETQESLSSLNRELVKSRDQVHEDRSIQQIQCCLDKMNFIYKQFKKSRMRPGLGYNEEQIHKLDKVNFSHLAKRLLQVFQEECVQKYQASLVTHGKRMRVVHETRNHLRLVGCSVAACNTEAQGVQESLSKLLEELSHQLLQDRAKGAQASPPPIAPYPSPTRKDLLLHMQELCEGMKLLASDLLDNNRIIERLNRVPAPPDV

[4] = target: T4, Inhibitor of nuclear factor kappa-B kinase subunit beta (Homo sapiens) (UniProt O14920); conditions: at 1 µM
T4 sequence (whole entry): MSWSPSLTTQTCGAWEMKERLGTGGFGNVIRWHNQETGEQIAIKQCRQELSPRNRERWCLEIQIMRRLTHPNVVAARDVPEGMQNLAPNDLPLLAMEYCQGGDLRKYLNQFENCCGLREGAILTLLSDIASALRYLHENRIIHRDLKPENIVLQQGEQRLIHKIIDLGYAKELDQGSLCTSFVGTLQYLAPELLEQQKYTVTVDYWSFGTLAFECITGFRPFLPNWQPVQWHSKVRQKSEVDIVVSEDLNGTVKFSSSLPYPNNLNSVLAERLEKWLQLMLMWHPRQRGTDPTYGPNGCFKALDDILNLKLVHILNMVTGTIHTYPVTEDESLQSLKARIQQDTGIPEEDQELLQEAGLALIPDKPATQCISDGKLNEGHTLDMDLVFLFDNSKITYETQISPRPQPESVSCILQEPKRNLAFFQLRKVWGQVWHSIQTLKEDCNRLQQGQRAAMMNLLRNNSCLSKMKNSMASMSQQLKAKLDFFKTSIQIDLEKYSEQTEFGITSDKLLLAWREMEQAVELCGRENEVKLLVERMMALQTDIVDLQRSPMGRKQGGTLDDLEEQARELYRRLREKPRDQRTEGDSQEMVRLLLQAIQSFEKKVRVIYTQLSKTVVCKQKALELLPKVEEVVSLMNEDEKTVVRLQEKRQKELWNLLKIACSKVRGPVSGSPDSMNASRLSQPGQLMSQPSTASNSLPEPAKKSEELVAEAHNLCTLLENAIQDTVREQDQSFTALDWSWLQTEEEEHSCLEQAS

Cc1cccc2c1NC(=O)/C2=N\Nc1ccc(S(N)(=O)=O)cc1
inhibition [1]: 4% | inhibition [2]: 3% and 0% | inhibition [3]: 0% and 1% | inhibition [4]: -2% and -1%

CCn1c(-c2nonc2N)nc2cnc(Oc3cccc(NC(=O)c4ccc(OCCN5CCOCC5)cc4)c3)cc21
inhibition [1]: 10% | inhibition [2]: 12% | inhibition [3]: 45% and 46% | inhibition [4]: 3%
